Source: PMC5227004, “Native ESI Mass Spectrometry Can Help to Avoid Wrong Interpretations from Isothermal Titration Calorimetry in Difficult Situations” (Journal of the American Society for Mass Spectrometry, 2016)

Columns and labels:
[1] = molecular target: T1, DNA-polymerase processivity factor (β-ring) from Escherichia coli (Escherichia coli, UniProt P0A988); experiment: Native ESI-MS titration of peptide binding to the E. coli β-ring; settings: βE.coli; processing taking into account separately the species R3
[2] = molecular target: T1, DNA-polymerase processivity factor (β-ring) from Escherichia coli; experiment: Isothermal titration calorimetry (ITC) of peptide binding to the E. coli β-ring; settings: βE.coli
Procedure: We used an iTC200 from Microcal (now Microcal-Malvern, UK) operated in the high-gain mode. […] In short, the β -rings were initially in the cell at concentrations ranging from 20 to 60 μM and the peptides were in the syringe at concentrations ranging from 200 to 600 μM. The buffer was Hepes 10 mM, pH 7.4, supplemented with NaCl 150 mM and EDTA 3 mM. Experiments were performed at different temperatures from 15 to 34 °C.
The processing of the ITC data was first performed with the same model as the one used for ESI-MS (one specific binding site per monomer). […] The advantage of this still unusual method is of fitting several titration curves with a minimum set of free parameters. All K d values obtained by ITC were corrected for 22.5 °C, which was the incubation temperature used in ESI-MS experiments. This was performed by using the Van’t Hoff equation: ∂ ln K d/∂T = − ΔH/(RT ^2), where ΔH is the variation of enthalpy during complex formation and R = 8.314 J mol^−1 K^−1 the gas constant. Note that such a correction is quite justified for K d values obtained by ITC since the primary output from ITC is precisely the enthalpic term ΔH governing the evolution of K d with the temperature.
This competition model requires determining a fixed fraction f 1 of the protein monomers binding their ligand according to a dissociation constant K d1 and an enthalpy variation ΔH 1, and a fixed fraction f 2 = 1 − f 1 binding their ligand according to a dissociation constant K d2 and an enthalpy variation ΔH 2 (we consider K d2 < K d1).

[3] = model with two competing modes of binding on the same site

T1 sequence (P0A988 whole entry, looked up): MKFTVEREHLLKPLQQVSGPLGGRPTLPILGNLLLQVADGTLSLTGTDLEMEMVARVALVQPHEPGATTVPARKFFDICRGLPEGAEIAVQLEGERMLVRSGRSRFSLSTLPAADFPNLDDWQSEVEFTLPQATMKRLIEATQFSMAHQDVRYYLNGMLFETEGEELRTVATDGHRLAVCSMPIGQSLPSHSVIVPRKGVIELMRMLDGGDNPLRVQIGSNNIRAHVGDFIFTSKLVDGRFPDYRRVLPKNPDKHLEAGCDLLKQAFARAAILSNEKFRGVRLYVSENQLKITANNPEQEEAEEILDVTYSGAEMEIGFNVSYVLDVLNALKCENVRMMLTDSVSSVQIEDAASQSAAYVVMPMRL

## CC(=O)N[C@@H](CCC(N)=O)C(=O)N[C@@H](CC(C)C)C(=O)N[C@@H](CC(=O)O)C(=O)N[C@@H](CC(C)C)C(=O)N[C@@H](Cc1ccccc1)C(=O)O [P6]
[1]
  P, probability of GPD (ESI-MS, Equations 4): 0.0528
[2]; [3]
  ΔH1 (ITC), weaker binding mode: ≈ 1 kcal mol^−1
  ΔH2 (ITC), stronger binding mode: ≈ –12 kcal mol^−1
[2]; simple model with one binding mode, at 25 °C
  ΔH (ITC), one binding mode: ≈ –11.8 ± 0.2 kcal mol^−1
